This passage reports IC50 results from ChEMBL document CHEMBL2311467, “Microwave-assisted synthesis of pyrimido[4,5-b][1,6]naphthyridin-4(3H)-ones with potential antitumor activity” (Eur J Med Chem, 2013).

Each structure is given as a SMILES string.

The assay deals with Mineralocorticoid receptor (Homo sapiens, UniProt P08235). Description: Antagonist activity at mineralocorticoid receptor (unknown origin).
Mineralocorticoid receptor, sequence (P08235 whole entry): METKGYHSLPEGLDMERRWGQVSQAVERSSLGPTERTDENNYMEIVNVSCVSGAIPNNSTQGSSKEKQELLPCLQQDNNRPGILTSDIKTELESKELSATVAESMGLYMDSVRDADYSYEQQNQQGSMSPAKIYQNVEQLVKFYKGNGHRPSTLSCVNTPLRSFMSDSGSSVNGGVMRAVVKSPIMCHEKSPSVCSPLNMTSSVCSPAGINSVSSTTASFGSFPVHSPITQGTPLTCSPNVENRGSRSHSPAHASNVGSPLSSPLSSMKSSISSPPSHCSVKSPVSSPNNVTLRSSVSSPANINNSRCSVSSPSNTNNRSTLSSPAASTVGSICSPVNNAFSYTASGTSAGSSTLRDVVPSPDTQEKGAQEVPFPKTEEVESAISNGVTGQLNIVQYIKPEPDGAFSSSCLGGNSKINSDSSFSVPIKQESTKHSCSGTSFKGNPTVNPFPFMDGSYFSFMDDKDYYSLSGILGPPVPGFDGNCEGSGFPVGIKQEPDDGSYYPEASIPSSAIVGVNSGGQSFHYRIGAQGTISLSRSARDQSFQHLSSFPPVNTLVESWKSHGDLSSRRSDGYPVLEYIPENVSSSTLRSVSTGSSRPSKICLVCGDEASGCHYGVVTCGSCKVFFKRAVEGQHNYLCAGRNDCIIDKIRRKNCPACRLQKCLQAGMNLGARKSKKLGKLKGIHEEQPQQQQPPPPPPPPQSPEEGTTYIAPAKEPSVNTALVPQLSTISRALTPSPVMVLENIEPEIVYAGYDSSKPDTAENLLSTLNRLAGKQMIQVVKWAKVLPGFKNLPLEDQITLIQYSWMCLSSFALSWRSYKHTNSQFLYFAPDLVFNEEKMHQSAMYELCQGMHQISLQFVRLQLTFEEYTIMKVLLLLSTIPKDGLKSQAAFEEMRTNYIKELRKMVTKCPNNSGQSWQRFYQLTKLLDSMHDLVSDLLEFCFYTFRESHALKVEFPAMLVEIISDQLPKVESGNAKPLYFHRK

The compound `CCOc1ncc(C)c2c1[C@H](c1ccc(C#N)cc1OC)C(C(N)=O)=C(C)N2` [FINERENONE] returned a 50% inhibitory concentration (IC50) of 18 nM.
